These results are taken from the NIST ThermoML archive (doi:10.1016/j.fluid.2019.06.004).

Series [1] in a line: Molar enthalpy of transition or fusion. The settings on record: DSC.

SMILES strings stand for the structures. Numbers after ± are expanded uncertainties.

Take `NC(=O)c1cnccn1` [pyrazinecarboxamide]: the Normal melting temperature (Crystal) was 188.96 ± 2.2 °C. For the same molecule, the Triple point temperature (Crystal 2, DSC) came to 421.11 ± 1.2 K. For the same molecule, the entries for the “Molar enthalpy of transition or fusion” value in series [1] (Crystal 2) and in series [1] (Crystal) were 1.52 ± 0.18 kJ/mol and 25.5 ± 2.1 kJ/mol, respectively.
